In PubChem BioAssay (NCI):
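1) Cells in 96-well plates. 2) Compound, 48 h, 5 concentrations. 3) Linear interpolation between surrounding doses. 4) Unreached endpoint = highest concentration. The concentration for 50% growth inhibition is given as GI50. TGI marks complete inhibition of growth.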

How the values were obtained:
Assay in all cases: NCI anticancer screen, dose series, 48 h; in the data active = GI50 below about 0.43 µM; inactive = the rest
SNB-75 CNS = tested on: SNB-75 CNS
OVCAR-4 ovarian = tested on: OVCAR-4 ovarian
RXF 393 renal = tested on: RXF 393 renal
NCI-H460 lung = tested on: NCI-H460 lung
XF 498 CNS = tested on: XF 498 CNS
LXFL 529 NSCLC = tested on: LXFL 529 NSCLC
HOP-62 NSCLC = tested on: HOP-62 NSCLC
SF-539 CNS = tested on: SF-539 CNS
SNB-78 CNS = tested on: SNB-78 CNS
SW-620 colon = tested on: SW-620 colon
MOLT-4 leukemia = tested on: MOLT-4 leukemia
ACHN renal = tested on: ACHN renal
UO-31 renal = tested on: UO-31 renal
OVCAR-3 ovarian = tested on: OVCAR-3 ovarian
OVCAR-5 ovarian = tested on: OVCAR-5 ovarian
K-562 leukemia = tested on: K-562 leukemia
CAKI-1 renal = tested on: CAKI-1 renal
HCC-2998 colon = tested on: HCC-2998 colon
UACC-62 melanoma = tested on: UACC-62 melanoma
U251 CNS = tested on: U251 CNS
SF-295 CNS = tested on: SF-295 CNS
SK-OV-3 ovarian = tested on: SK-OV-3 ovarian
A549 NSCLC = tested on: A549 NSCLC
HL-60(TB) leukemia = tested on: HL-60(TB) leukemia
CCRF-CEM leukemia = tested on: CCRF-CEM leukemia
HOP-18 NSCLC = tested on: HOP-18 NSCLC
MALME-3M melanoma = tested on: MALME-3M melanoma
COLO 205 colon = tested on: COLO 205 colon
DMS 273 small cell lung = tested on: DMS 273 small cell lung
EKVX NSCLC = tested on: EKVX NSCLC
KM20L2 colon = tested on: KM20L2 colon
SK-MEL-2 melanoma = tested on: SK-MEL-2 melanoma
A498 renal = tested on: A498 renal
SN12C renal = tested on: SN12C renal
NCI-H226 lung = tested on: NCI-H226 lung
NCI-H522 lung = tested on: NCI-H522 lung
TK-10 renal = tested on: TK-10 renal
M14 melanoma = tested on: M14 melanoma
786-0 renal = tested on: 786-0 renal
HCT-15 colon = tested on: HCT-15 colon
SF-268 CNS = tested on: SF-268 CNS
IGROV1 ovarian = tested on: IGROV1 ovarian
HOP-92 NSCLC = tested on: HOP-92 NSCLC
SNB-19 CNS = tested on: SNB-19 CNS
KM12 colon = tested on: KM12 colon
DMS 114 small cell lung = tested on: DMS 114 small cell lung
SK-MEL-28 melanoma = tested on: SK-MEL-28 melanoma
RPMI-8226 leukemia = tested on: RPMI-8226 leukemia
UACC-257 melanoma = tested on: UACC-257 melanoma
OVCAR-8 ovarian = tested on: OVCAR-8 ovarian
SK-MEL-5 melanoma = tested on: SK-MEL-5 melanoma
NCI-H23 lung = tested on: NCI-H23 lung
HT29 colon = tested on: HT29 colon
LOX IMVI melanoma = tested on: LOX IMVI melanoma
DLD-1 colon = tested on: DLD-1 colon
M19-MEL melanoma = tested on: M19-MEL melanoma
HCT-116 colon = tested on: HCT-116 colon

Cn1nc(N)nc1N=S(C)(C)=N
> 100 µM: TGI (SNB-75 CNS) | TGI (OVCAR-4 ovarian) | TGI (RXF 393 renal) | TGI (NCI-H460 lung) | TGI (XF 498 CNS) | TGI (LXFL 529 NSCLC) | TGI (HOP-62 NSCLC) | TGI (SF-539 CNS) | TGI (SNB-78 CNS) | TGI (SW-620 colon) | TGI (MOLT-4 leukemia) | TGI (ACHN renal) | TGI (UO-31 renal) | TGI (OVCAR-3 ovarian) | TGI (OVCAR-5 ovarian) | TGI (K-562 leukemia) | TGI (CAKI-1 renal) | TGI (HCC-2998 colon) | TGI (UACC-62 melanoma) | TGI (U251 CNS) | TGI (SF-295 CNS) | TGI (SK-OV-3 ovarian) | TGI (A549 NSCLC) | TGI (HL-60(TB) leukemia) | TGI (CCRF-CEM leukemia) | TGI (HOP-18 NSCLC) | TGI (MALME-3M melanoma) | TGI (COLO 205 colon) | TGI (DMS 273 small cell lung) | TGI (EKVX NSCLC) | TGI (KM20L2 colon) | TGI (SK-MEL-2 melanoma) | TGI (A498 renal) | TGI (SN12C renal) | TGI (NCI-H226 lung) | TGI (NCI-H522 lung) | TGI (TK-10 renal) | TGI (M14 melanoma) | TGI (786-0 renal) | TGI (HCT-15 colon) | TGI (SF-268 CNS) | TGI (IGROV1 ovarian) | TGI (HOP-92 NSCLC) | TGI (SNB-19 CNS) | TGI (KM12 colon) | TGI (DMS 114 small cell lung) | TGI (SK-MEL-28 melanoma) | TGI (RPMI-8226 leukemia) | TGI (UACC-257 melanoma) | TGI (OVCAR-8 ovarian) | TGI (SK-MEL-5 melanoma) | TGI (NCI-H23 lung) | TGI (HT29 colon)

COc1cc2c(cc1OC)[Se]c1cc(OC)c(OC)cc1[Se]2
> 100 µM: TGI (SNB-75 CNS) | TGI (OVCAR-4 ovarian) | TGI (RXF 393 renal) | TGI (NCI-H460 lung) | TGI (XF 498 CNS) | TGI (LXFL 529 NSCLC) | TGI (HOP-62 NSCLC) | TGI (SF-539 CNS) | TGI (SNB-78 CNS) | TGI (SW-620 colon) | TGI (MOLT-4 leukemia) | TGI (ACHN renal) | TGI (LOX IMVI melanoma) | TGI (UO-31 renal) | TGI (DLD-1 colon) | TGI (OVCAR-3 ovarian) | TGI (K-562 leukemia) | TGI (CAKI-1 renal) | TGI (UACC-62 melanoma) | TGI (U251 CNS) | TGI (SF-295 CNS) | TGI (SK-OV-3 ovarian) | TGI (A549 NSCLC) | TGI (CCRF-CEM leukemia) | TGI (HOP-18 NSCLC) | TGI (MALME-3M melanoma) | TGI (M19-MEL melanoma) | TGI (DMS 273 small cell lung) | TGI (SK-MEL-2 melanoma) | TGI (A498 renal) | TGI (SN12C renal) | TGI (NCI-H226 lung) | TGI (HCT-116 colon) | TGI (NCI-H522 lung) | TGI (TK-10 renal) | TGI (M14 melanoma) | TGI (786-0 renal) | TGI (HCT-15 colon) | TGI (SF-268 CNS) | TGI (IGROV1 ovarian) | TGI (HOP-92 NSCLC) | TGI (SNB-19 CNS) | TGI (KM12 colon) | TGI (DMS 114 small cell lung) | TGI (SK-MEL-28 melanoma) | TGI (RPMI-8226 leukemia) | TGI (UACC-257 melanoma) | TGI (OVCAR-8 ovarian) | TGI (SK-MEL-5 melanoma) | TGI (NCI-H23 lung) | TGI (HT29 colon)
inactive: GI50 (OVCAR-4 ovarian) > 100 µM | GI50 (NCI-H460 lung) > 100 µM | GI50 (XF 498 CNS) > 100 µM | GI50 (LXFL 529 NSCLC) > 100 µM | GI50 (HOP-62 NSCLC) > 100 µM | GI50 (SNB-78 CNS) > 100 µM | GI50 (SW-620 colon) > 100 µM | GI50 (ACHN renal) > 100 µM | GI50 (UO-31 renal) > 100 µM | GI50 (DLD-1 colon) > 100 µM | GI50 (OVCAR-3 ovarian) > 100 µM | GI50 (K-562 leukemia) 5.08 µM | GI50 (CAKI-1 renal) > 100 µM | GI50 (UACC-62 melanoma) > 100 µM | GI50 (U251 CNS) > 100 µM | GI50 (SK-OV-3 ovarian) > 100 µM | GI50 (A549 NSCLC) > 100 µM | GI50 (CCRF-CEM leukemia) > 100 µM | GI50 (MALME-3M melanoma) > 100 µM | GI50 (M19-MEL melanoma) > 100 µM | GI50 (SK-MEL-2 melanoma) > 100 µM | GI50 (A498 renal) > 100 µM | GI50 (SN12C renal) > 100 µM | GI50 (NCI-H226 lung) > 100 µM | GI50 (HCT-116 colon) > 100 µM | GI50 (NCI-H522 lung) > 100 µM | GI50 (TK-10 renal) > 100 µM | GI50 (M14 melanoma) > 100 µM | GI50 (786-0 renal) > 100 µM | GI50 (SF-268 CNS) > 100 µM | GI50 (IGROV1 ovarian) > 100 µM | GI50 (SNB-19 CNS) > 100 µM | GI50 (KM12 colon) 3.54 µM | GI50 (DMS 114 small cell lung) 4.77 µM | GI50 (SK-MEL-28 melanoma) > 100 µM | GI50 (RPMI-8226 leukemia) > 100 µM | GI50 (UACC-257 melanoma) > 100 µM | GI50 (OVCAR-8 ovarian) > 100 µM | GI50 (SK-MEL-5 melanoma) > 100 µM | GI50 (NCI-H23 lung) > 100 µM | GI50 (HT29 colon) 4.32 µM
